Source: ChEMBL document CHEMBL1212897 (J Med Chem, 2010)

Columns and labels:
[1] = molecular target: T1, Mineralocorticoid receptor (Homo sapiens, UniProt P08235); type: functional, cell-based, Huh-7;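 note: antagonism at Gal4-fused mineralocorticoid receptor in human Huh7 cells, measured by luciferase reporter gene read-out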
T1 sequence (P08235 whole entry): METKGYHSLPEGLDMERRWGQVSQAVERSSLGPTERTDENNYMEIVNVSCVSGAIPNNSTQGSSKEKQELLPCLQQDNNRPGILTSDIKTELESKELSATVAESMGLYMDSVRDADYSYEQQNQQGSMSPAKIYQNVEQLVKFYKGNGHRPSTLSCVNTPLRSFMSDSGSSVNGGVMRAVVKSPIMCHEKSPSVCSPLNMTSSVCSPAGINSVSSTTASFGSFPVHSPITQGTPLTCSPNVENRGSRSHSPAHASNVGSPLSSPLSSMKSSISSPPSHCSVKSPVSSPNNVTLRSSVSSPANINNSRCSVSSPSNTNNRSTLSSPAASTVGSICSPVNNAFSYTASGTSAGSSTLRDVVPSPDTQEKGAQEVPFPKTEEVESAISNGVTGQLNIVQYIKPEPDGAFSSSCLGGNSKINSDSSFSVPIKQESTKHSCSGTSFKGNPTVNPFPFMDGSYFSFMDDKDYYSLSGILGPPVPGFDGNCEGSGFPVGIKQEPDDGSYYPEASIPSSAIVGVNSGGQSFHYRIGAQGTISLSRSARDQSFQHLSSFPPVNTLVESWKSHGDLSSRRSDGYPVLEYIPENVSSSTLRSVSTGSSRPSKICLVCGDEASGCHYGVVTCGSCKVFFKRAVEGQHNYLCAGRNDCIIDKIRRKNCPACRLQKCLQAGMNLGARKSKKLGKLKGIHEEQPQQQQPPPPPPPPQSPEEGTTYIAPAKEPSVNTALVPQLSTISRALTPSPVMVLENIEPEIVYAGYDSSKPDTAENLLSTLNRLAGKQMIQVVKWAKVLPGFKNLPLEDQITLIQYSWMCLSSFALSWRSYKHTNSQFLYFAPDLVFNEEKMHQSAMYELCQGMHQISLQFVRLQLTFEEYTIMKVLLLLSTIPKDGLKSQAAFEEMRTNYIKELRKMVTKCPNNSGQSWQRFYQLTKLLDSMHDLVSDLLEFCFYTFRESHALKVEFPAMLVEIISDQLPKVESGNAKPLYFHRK

[2] = molecular target: T2, Estrogen receptor (Homo sapiens, UniProt P03372); test: Antagonist activity at estrogen receptor; type: functional
T2 sequence (P03372 whole entry): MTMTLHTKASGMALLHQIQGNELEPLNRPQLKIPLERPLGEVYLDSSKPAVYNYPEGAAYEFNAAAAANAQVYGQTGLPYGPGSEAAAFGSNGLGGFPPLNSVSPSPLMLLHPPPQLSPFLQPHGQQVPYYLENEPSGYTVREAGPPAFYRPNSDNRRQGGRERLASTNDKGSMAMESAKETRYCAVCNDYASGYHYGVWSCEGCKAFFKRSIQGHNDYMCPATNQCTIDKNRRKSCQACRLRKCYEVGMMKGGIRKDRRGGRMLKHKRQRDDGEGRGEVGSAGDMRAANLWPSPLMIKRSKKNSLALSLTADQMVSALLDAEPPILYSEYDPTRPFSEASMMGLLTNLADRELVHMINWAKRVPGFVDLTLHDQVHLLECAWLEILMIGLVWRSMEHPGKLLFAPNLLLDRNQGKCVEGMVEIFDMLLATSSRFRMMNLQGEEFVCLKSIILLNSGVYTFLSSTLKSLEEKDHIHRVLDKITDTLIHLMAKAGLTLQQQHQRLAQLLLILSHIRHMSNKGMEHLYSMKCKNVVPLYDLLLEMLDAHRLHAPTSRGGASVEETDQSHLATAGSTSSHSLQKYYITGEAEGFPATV

[3] = Clearance in Sprague-Dawley rat at 2 mg/kg, iv; type: ADME, organism-based; set-up: dose 2 mg/kg, route intravenous; conditions: in vivo
[4] = Volume of distribution at steady state in Sprague-Dawley rat at 2 mg/kg, iv; type: ADME, organism-based; set-up: dose 2 mg/kg, route intravenous; conditions: in vivo, read-out: Vdss
[5] = Half life in Sprague-Dawley rat at 2 mg/kg, iv; type: ADME, organism-based; set-up: dose 2 mg/kg, route intravenous; conditions: in vivo
[6] = Oral bioavailability in Sprague-Dawley rat at 2 mg/kg; type: ADME, organism-based; conditions: in vivo
[7] = molecular target: Voltage-gated inwardly rectifying potassium channel KCNH2 (Homo sapiens, UniProt Q12809)
Voltage-gated inwardly rectifying potassium channel KCNH2, sequence (Q12809 whole entry): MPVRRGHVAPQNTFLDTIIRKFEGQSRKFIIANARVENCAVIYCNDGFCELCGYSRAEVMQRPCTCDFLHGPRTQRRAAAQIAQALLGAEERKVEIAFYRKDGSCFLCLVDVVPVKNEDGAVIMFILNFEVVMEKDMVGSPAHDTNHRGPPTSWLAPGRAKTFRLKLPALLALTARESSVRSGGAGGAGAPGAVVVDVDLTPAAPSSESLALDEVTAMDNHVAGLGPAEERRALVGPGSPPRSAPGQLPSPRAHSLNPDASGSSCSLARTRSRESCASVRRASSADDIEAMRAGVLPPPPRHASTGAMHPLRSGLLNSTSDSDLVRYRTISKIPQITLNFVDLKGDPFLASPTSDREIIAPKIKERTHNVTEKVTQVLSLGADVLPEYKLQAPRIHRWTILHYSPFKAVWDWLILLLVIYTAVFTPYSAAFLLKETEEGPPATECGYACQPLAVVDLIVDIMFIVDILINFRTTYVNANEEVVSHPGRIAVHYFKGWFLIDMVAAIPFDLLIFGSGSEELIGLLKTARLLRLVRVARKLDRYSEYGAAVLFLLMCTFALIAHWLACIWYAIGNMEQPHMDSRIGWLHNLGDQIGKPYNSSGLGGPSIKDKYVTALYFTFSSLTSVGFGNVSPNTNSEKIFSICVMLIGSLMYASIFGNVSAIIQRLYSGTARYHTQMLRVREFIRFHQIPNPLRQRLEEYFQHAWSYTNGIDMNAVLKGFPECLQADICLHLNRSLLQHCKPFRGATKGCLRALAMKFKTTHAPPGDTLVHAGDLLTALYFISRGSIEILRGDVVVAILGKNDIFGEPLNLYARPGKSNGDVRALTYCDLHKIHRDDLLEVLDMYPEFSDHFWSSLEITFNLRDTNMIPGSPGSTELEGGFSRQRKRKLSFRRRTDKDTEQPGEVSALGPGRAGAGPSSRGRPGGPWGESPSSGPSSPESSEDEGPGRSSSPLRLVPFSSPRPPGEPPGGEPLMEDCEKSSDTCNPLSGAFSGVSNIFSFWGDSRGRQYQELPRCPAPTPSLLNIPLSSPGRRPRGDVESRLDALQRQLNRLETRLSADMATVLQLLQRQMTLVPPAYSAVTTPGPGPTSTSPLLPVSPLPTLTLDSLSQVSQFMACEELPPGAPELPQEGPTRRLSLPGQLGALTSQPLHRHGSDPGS

Row | Compound | IC50 [1] | further results
1 | N#Cc1ccc(N2N=C(c3ccc(C(=O)O)cc3)C[C@@H]2c2ccc(F)cc2)cc1 | 101 nM | –
2 | N#Cc1ccc(N2N=C(c3ccc(C(=O)O)c(Cl)c3)C[C@@H]2C2CCCC2)cc1Cl | 26 nM | –
3 | COc1cc(C2=NN(c3ccc(C#N)c(Cl)c3)[C@@H](C3CCCC3)C2)ccc1C(=O)O | – | IC50 [2]: > 10 µM; clearance [3]: 24 mL/min/kg; Vd [4]: 3.9 L/kg; half-life [5]: 114 min; bioavailability [6]: 57%
4 | COc1cc(C(=O)O)ccc1C1=NN(c2ccc(C#N)c(Cl)c2)[C@@H](C2CCCC2)C1 | 2 nM | –
5 | N#Cc1ccc(N2N=C(c3ccc(C(=O)O)c(OCCCO)c3)C[C@@H]2C2CCCC2)cc1Cl | 13 nM | –
6 | COCc1cc(N2N=C3c4ccc(C(=O)O)cc4CC[C@@H]3[C@@H]2C2CCCC2)ccc1C#N | 150 nM | –
7 | N#Cc1ccc(N2N=C(c3ccc4[nH]c(=O)oc4c3)C[C@@H]2c2ccc(F)cc2)cc1 | 41 nM | IC50 [7]: 29 nM
8 | N#Cc1ccc(N2N=C3c4ccc(C(=O)O)cc4CC[C@@H]3[C@@H]2C2C=CC=CO2)cc1Cl (mixture of isomers) | 127 nM | –
9 | O=C(O)c1ccc(C2=NN(c3ccccc3)C(c3ccc(F)cc3)C2)cc1 (racemic) | 9730 nM | –
10 | O=C(O)c1ccc(C2=NN(c3ccc(C(=O)O)cc3)C(c3ccc(F)cc3)C2)cc1 (racemic) | > 10000 nM | –
11 | N#Cc1ccc(N2N=C(c3ccc(C(=O)O)cc3)CC2c2ccc(F)cc2)cc1F (racemic) | 243 nM | –
12 | N#Cc1ccc(N2N=C(c3ccc(C(=O)O)cc3)CC2c2ccc(F)cc2)c(F)c1 (racemic) | 535 nM | –
13 | N#Cc1ccc(N2N=C(c3ccc(C(=O)O)cc3)CC2c2ccc(F)cc2)cc1C(F)(F)F (racemic) | 127 nM | –
14 | N#Cc1ccc(N2N=C(c3ccc(C(=O)O)cc3)CC2c2cccnc2)cc1 (racemic) | > 10000 nM | –
15 | N#Cc1ccc(N2N=C(c3ccc(C(=O)O)cc3)CC2c2ccco2)cc1 (racemic) | 410 nM | –
16 | N#Cc1ccc(N2N=C(c3ccc(C(=O)O)cc3)CC2Cc2ccccc2)cc1 (racemic) | 3650 nM | –
17 | CC(C)C1CC(c2ccc(C(=O)O)cc2)=NN1c1ccc(C#N)c(Cl)c1 (racemic) | 383 nM | –
18 | N#Cc1ccc(N2N=C(c3ccc(C(=O)O)cc3)CC2C2CCCC2)cc1Cl (racemic) | 54 nM | –
19 | N#Cc1ccc(N2N=C3c4ccc(C(=O)O)cc4CC[C@H]3[C@H]2c2ccc(F)cc2)cc1Cl (racemic) | 223 nM | –
20 | N#Cc1ccc(N2N=C3c4ccc(C(=O)O)cc4CC[C@@H]3[C@@H]2C2CCC2)cc1Cl (racemic) | 21 nM | –
21 | N#Cc1ccc(N2N=C3c4ccc(C(=O)O)cc4CC[C@@H]3[C@@H]2C2CC=CC2)cc1Cl (racemic) | 15 nM | –
22 | N#Cc1ccc(N2N=C3c4ccc(C(=O)O)cc4CC[C@@H]3[C@@H]2C2CCCC2)cc1O (racemic) | > 500 nM | –
23 | N#Cc1ccc(N2N=C3c4ccc(C(=O)O)cc4CO[C@@H]3[C@@H]2c2ccc(F)cc2)cc1Cl (racemic) | 849 nM | –
24 | O=[N+]([O-])c1ccc(N2N=C(c3ccc(O)cc3)CC2c2ccc(F)cc2)cc1 (racemic) | 460 nM | –
25 | CN(C)CCN(C)C(=O)c1ccc(C2=NN(c3ccc(C#N)cc3)C(c3ccc(F)cc3)C2)cc1 (racemic) | 83 nM | IC50 [7]: 170 nM
26 | N#Cc1ccc(N2N=C(c3ccc4[nH]c(=O)oc4c3)CC2c2ccc(C(=O)O)cc2)cc1 (racemic) | > 10000 nM | IC50 [7]: > 30000 nM
27 | N#Cc1ccc(N2N=C3c4ccc(C(=O)O)cc4CO[C@@H]3[C@@H]2C2CCCC2)cc1Cl (stereo in doubt) | 65 nM | –
28 | COC(=O)[C@@H]1CC2=CC(=O)CC[C@]2(C)[C@@]23O[C@@H]2C[C@@]2(C)[C@@H](CC[C@@]24CCC(=O)O4)[C@H]13 [EPLERENONE] | – | IC50 [2]: > 10 µM

The next lines start with results.

Row | IC50 [1] | Compound | further results
29 | 8360 nM | N#Cc1ccc(N2N=C(c3ccc(C(=O)O)cc3)C[C@H]2c2ccc(F)cc2)cc1 | –
30 | 52 nM | N#Cc1ccc(N2N=C(c3ccc(C(=O)O)c(F)c3)C[C@@H]2C2CCCC2)cc1Cl | –
31 | 80 nM | N#Cc1ccc(N2N=C(c3ccc(C(=O)O)c(OC(F)(F)F)c3)C[C@@H]2C2CCCC2)cc1Cl | –
32 | 135 nM | N#Cc1ccc(N2N=C(c3ccc(CC(=O)O)cc3)C[C@@H]2C2CCCC2)cc1Cl | –
33 | 2080 nM | N#Cc1ccc(N2N=C(c3ccc4[nH]c(=O)oc4c3)C[C@H]2c2ccc(F)cc2)cc1 | –
34 | 32 nM | Cc1nc(C)c(C2=NN(c3ccc(C#N)cc3)[C@@H](c3ccc(F)cc3)C2)s1 | –
35 | 720 nM | N#Cc1ccc(N2N=C3c4ccc(C(=O)O)cc4CC[C@@H]3[C@@H]2C2CCCO2)cc1Cl (mixture of isomers) | –
36 | 180 nM | CCOC(=O)c1ccc(N2N=C(c3ccc(C(=O)O)cc3)CC2c2ccc(F)cc2)cc1 (racemic) | –
37 | 1440 nM | COc1ccc(N2N=C(c3ccc(C(=O)O)cc3)CC2c2ccc(F)cc2)cc1 (racemic) | –
38 | 56 nM | N#Cc1ccc(N2N=C(c3ccc(C(=O)O)cc3)CC2c2ccc(F)cc2)cc1Cl (racemic) | –
39 | 284 nM | N#Cc1ccc(N2N=C(c3ccc(C(=O)O)cc3)CC2c2ccc(F)cc2)c(Cl)c1 (racemic) | –
40 | 56 nM | Cc1cc(N2N=C(c3ccc(C(=O)O)cc3)CC2c2ccc(F)cc2)ccc1C#N (racemic) | –
41 | > 1000 nM | N#Cc1ccc(N2N=C(c3ccc(C(=O)O)cc3)CC2c2ccc(F)cc2)cc1C#N (racemic) | –
42 | > 10000 nM | N#Cc1ccc(N2N=C(c3ccc(C(=O)O)cc3)CC2c2ccncc2)cc1 (racemic) | –
43 | > 10000 nM | N#Cc1ccc(N2N=C(c3ccc(C(=O)O)cc3)CC2c2ccccn2)cc1 (racemic) | –
44 | 763 nM | N#Cc1ccc(N2N=C(c3ccc(C(=O)O)cc3)CC2c2cccs2)cc1 (racemic) | –

Row | IC50 [1] | Compound | further results
45 | 441 nM | N#Cc1ccc(N2N=C(c3ccc(C(=O)O)cc3)CC2c2cccc(F)c2)cc1 (racemic) | –
46 | 1590 nM | COc1cccc(C2CC(c3ccc(C(=O)O)cc3)=NN2c2ccc(C#N)cc2)c1 (racemic) | –
47 | 1290 nM | N#Cc1ccc(N2N=C(c3ccc(C(=O)O)cc3)CC2C2CCCCC2)cc1 (racemic) | –
48 | 151 nM | N#Cc1ccc(N2N=C(c3ccc(C(=O)O)cc3)CC2C2CCCC2)cc1 (racemic) | –
49 | 2530 nM | CC(C)CC1CC(c2ccc(C(=O)O)cc2)=NN1c1ccc(C#N)cc1 (racemic) | –
50 | 4340 nM | N#Cc1ccc(N2N=C3c4ccc(C(=O)O)cc4C[C@@H]3[C@@H]2c2ccc(F)cc2)cc1 (racemic) | –
51 | 553 nM | N#Cc1ccc(N2N=C3c4ccc(C(=O)O)cc4CC[C@@H]3[C@@H]2c2ccc(F)cc2)cc1 (racemic) | –
52 | 4 nM | Cc1cc(N2N=C3c4ccc(C(=O)O)cc4CC[C@@H]3[C@@H]2C2CCCC2)ccc1C#N (racemic) | –
53 | 7 nM | COc1cc(N2N=C3c4ccc(C(=O)O)cc4CC[C@@H]3[C@@H]2C2CCCC2)ccc1C#N (racemic) | –
54 | 488 nM | N#Cc1ccc(N2N=C3c4ccc(C(=O)O)cc4CC[C@@H]3[C@@H]2C2CCCC2)cc1OCc1ccccc1 (racemic) | –
55 | 39 nM | Cc1cc(N2N=C3c4ccc(C(=O)O)cc4CO[C@H]3[C@H]2C2CCCC2)ccc1C#N (racemic) | –
56 | 58 nM | N#Cc1ccc(N2N=C(c3ccc4[nH]c(=O)oc4c3)CC2c2ccc(F)cc2)cc1 (racemic) | –
57 | 784 nM | O=C(O)c1ccc(N2N=C(c3ccc4[nH]c(=O)oc4c3)CC2c2ccc(F)cc2)cc1 (racemic) | IC50 [7]: > 30000 nM
58 | 246 nM | N#Cc1ccc(N2N=C(c3ccc(C(=O)O)cc3)CC2c2ccc(F)cc2)cc1 (racemic) | IC50 [7]: > 30000 nM
59 | 69 nM | COc1cc(C2=NN(c3ccc(C#N)c(Cl)c3)[C@@H](C3CCCC3)C2C)ccc1C(=O)O (single isomer, unassigned) | –
60 | 146 nM | N#Cc1ccc(N2N=C3c4ccc(C(=O)O)cc4CO[C@H]3[C@H]2C2CCCC2)cc1Cl (stereo in doubt) | –
